Measured values taken from US20220031695A1, “SHP2 INHIBITOR COMPOSITIONS FOR USE IN TREATING CANCER” (Revolution Medicines, Inc., priority 2018, published 2022).

What was measured:
SHP2 = molecular target: T1, SHP2 (Homo sapiens, UniProt Q06124); experiment: SHP2 allosteric inhibition assay (DiFMUP prompt fluorescence); type: biochemical; conditions: 0.2 nM SHP2, 0.5 μM activating peptide, DiFMUP substrate
T1 sequence (Q06124 1-593): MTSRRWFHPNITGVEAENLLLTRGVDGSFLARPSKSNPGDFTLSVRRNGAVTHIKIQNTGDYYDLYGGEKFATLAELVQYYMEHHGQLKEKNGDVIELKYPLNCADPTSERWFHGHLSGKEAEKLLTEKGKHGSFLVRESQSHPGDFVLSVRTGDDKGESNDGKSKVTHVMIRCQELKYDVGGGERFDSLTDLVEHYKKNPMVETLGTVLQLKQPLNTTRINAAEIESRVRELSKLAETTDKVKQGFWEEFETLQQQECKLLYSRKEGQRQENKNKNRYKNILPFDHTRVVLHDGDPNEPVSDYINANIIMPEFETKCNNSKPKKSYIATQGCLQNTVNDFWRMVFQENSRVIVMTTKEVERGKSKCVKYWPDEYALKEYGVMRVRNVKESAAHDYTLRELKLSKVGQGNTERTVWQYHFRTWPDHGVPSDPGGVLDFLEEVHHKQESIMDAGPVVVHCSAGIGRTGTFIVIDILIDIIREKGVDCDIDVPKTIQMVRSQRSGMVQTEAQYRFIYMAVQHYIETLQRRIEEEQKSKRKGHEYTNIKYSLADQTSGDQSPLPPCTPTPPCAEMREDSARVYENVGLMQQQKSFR
Excerpt: Without wishing to be bound by theory, SHP is allosterically activated through binding of bis-tyrosyl-phosphorylated peptides to its Src Homology 2 (SH2) domains. The latter activation step leads to the release of the auto-inhibitory interface of SHP2, which in turn renders the SHP2 protein tyrosine phosphatase (PTP) active and available for substrate recognition and reaction catalysis. The catalytic activity of SHP2 was monitored using the surrogate substrate DiFMUP in a prompt fluorescence assay format.
The phosphatase reactions were performed at room temperature in 96-well black polystyrene plate, flat bottom, non-binding surface (Corning, Cat #3650) using a final reaction volume of 100 μL and the following assay buffer conditions: 50 mM HEPES, pH 7.2, 100 mM NaCl, 0.5 mM EDTA, 0.05% P-20, 1 mM DTT.
The inhibition of SHP2 by RMC-3943, RMC-4550, and Compound C was monitored using an assay in which 0.2 nM of SHP2 was incubated with 0.5 μM of Activating Peptide 1 (sequence: H2N-LN(pY)IDLDLV(dPEG8)LST(pY)ASINFQK-amide) (SEQ ID NO: 1) or Activating Peptide 2 (sequence: H2N-LN(pY)AQLWHA(dPEG8)LTI(pY)ATIRRF-amide) (SEQ ID NO: 2). After 30-60 minutes incubation at 25° C., the surrogate substrate DiFMUP (Invitrogen, Cat #D6567) was added to the reaction and activity was determined by a kinetic read using a microplate reader (Envision, Perkin-Elmer or Spectramax M5, Molecular Devices). […]

[1] = system: ROS1 fusion-positive NSCLC; conditions: patients harboring ROS1 fusion-positive NSCLC; cited from earlier work

IC50 (SHP2) [nM] | SMILES | progression-free survival [1] [month]
2.19 | Nc1nc(N2CCC3(CCC[C@H]3N)CC2)cnc1Sc1ccnc(Cl)c1Cl [RMC-3943] | 
 | C[C@@H](Oc1cc(-c2cnn(C3CCNCC3)c2)cnc1N)c1c(Cl)ccc(F)c1Cl [crizotinib] | 19
